Results published in the RepoRT retention time repository (doi:10.1016/j.jhazmat.2019.121712).

experiment: Thermo Scientific Acclaim RSLC 120 C18, 100 × 2.1 mm, 2.2 µm, 30 °C; A: 90% water + 10% methanol + 0.01% formic acid + 5 mM ammonium formate; B: methanol + 0.01% formic acid + 5 mM ammonium formate; gradient (min/%B) 0.1/1 3/39 14/99.9 16/99.9; conditions: stereoisomer not certain

LC retention time [min]	Compound
6.91	CC12CC3CC(C)(C1)CC(N)(C3)C2
1.26	NC(=O)C1CCNCC1
4.27	Cc1ncc([N+](=O)[O-])n1C
5.37	O=C(NC1CCN(CCc2c[nH]c3ccccc23)CC1)c1ccccc1
4.76	NC(=O)c1ccccc1O
9.65	CSC(=O)c1cccc2nnsc12
4.44	Cc1cc2c(OCC(O)CNC(C)C)cccc2[nH]1 (stereo unspecified)
5.44	COC(=O)c1ccccc1C(=O)c1ccc(OCCN2CCCCC2)cc1
7.21	CN(C)CCCN1c2ccccc2Sc2cccnc21
3.21	CCN(CC)CCOC(=O)c1ccc(N)cc1
3.94	CC(=O)Nc1c(C)n(C)n(-c2ccccc2)c1=O
3.89	CC(C)NCC(O)COc1cccc2[nH]ccc12 (stereo unspecified)
10.5	CCCc1nn(C)c2c(=S)nc(-c3cc(S(=O)(=O)N4CCN(CCO)CC4)ccc3OCC)[nH]c12
2.53	Nc1nc(=S)c2[nH]cnc2[nH]1
10.6	CCCc1nn(C)c2c(=S)nc(-c3cc(S(=O)(=O)N4CCN(C)CC4)ccc3OCC)[nH]c12
8.25	CC1(OC(=O)C=Cc2ccccc2)CC(O)C2(O)C=COC(OC3OC(CO)C(O)C(O)C3O)C12 (stereo unspecified)
6.38	CCOC(=O)CSc1nc(C(C)(C)C)nn1C(=O)N(C)C
11	CN(CC=CC#CC(C)(C)C)Cc1cccc2ccccc12
6.79	CCN(CCCCOC(=O)c1ccc(OC)c(OC)c1)C(C)Cc1ccc(OC)cc1 (stereo unspecified)

LC retention time [min]	Compound
4.53	NS(=O)(=O)Cc1noc2ccccc12
3.71	NNCCc1ccccc1
6.58	CC(C)(C)NCC(O)COc1ccc(NC(=O)NC2CCCCC2)cc1 (stereo unspecified)
6.36	CCCc1cc(C(N)=S)ccn1
6.99	CCCc1nn(C)c2c(=O)[nH]c(-c3cc(C(=O)CN4CCN(C)CC4)ccc3OCC)nc12
4.99	Cc1cc2c(s1)Nc1ccccc1N=C2N1CCN(C)CC1
13	CC(C)CCOc1ccc(NC(=S)Nc2ccc(OCCC(C)C)cc2)cc1
8.23	CCOC(=O)C(CCc1ccccc1)NC(C)C(=O)N1CC2(CC1C(=O)O)SCCS2 (stereo unspecified)
7.88	CCC1OC(=O)CC(O)C(C)C(OC2OC(C)C(OC3CC(C)(O)C(O)C(C)O3)C(N(C)C)C2O)C(CC=O)CC(C)C(=O)C=CC(C)=CC1COC1OC(C)C(O)C(OC)C1OC (stereo unspecified)
6.41	COc1ccc(C2Sc3ccccc3N(CCN(C)C)C(=O)C2O)cc1 (stereo unspecified)
8.17	CNc1nc(NC(C)C)nc(SC)n1
4.74	CNc1c(C)n(C)n(-c2ccccc2)c1=O
6.67	Cc1ccc(NC=O)c(C)c1
8.21	CC(C)CN(CC(O)C(Cc1ccccc1)NC(=O)OC1COC2OCCC12)S(=O)(=O)c1ccc(N)cc1 (stereo unspecified)
4.24	CC(=O)Nc1ccc(S(=O)(=O)Nc2nccs2)cc1
11.2	CC(=O)C1CCC2C3CCC4=CC(=O)CCC4(C)C3CCC12C (stereo unspecified)
8.87	COCCCOc1cc(CC(CC(N)C(O)CC(C(=O)NCC(C)(C)C(N)=O)C(C)C)C(C)C)ccc1OC (stereo unspecified)
4.59	CC(=O)Nc1ccc(S(=O)(=O)Nc2nc(C)cc(C)n2)cc1
7.76	O=C(O)Cc1cccc2ccccc12

LC retention time [min]	Compound
8.47	CN(C)C(=O)NC1CCCCCCC1
12.9	CC(C)c1cc(Oc2ccccc2)cc(C(C)C)c1NC(=S)NC(C)(C)C
10.1	C1=Cc2ccccc2Nc2ccccc21
3.34	CC(=O)Nc1ccc(OCC(O)CNC(C)C)cc1 (stereo unspecified)
12.6	CCC(C)(C)C(=O)OC1CC(C)C=C2C=CC(C)C(CCC3CC(O)CC(=O)O3)C21 (stereo unspecified)
8.11	CCCc1nc(C)c2c(=O)[nH]c(-c3cc(S(=O)(=O)N4CCN(CC)CC4)ccc3OCC)nn12
3.19	CCNC1CC(C)S(=O)(=O)c2sc(S(N)(=O)=O)cc21 (stereo unspecified)
9.36	OCCN(CCO)c1nc(N2CCCCC2)c2nc(N(CCO)CCO)nc(N3CCCCC3)c2n1
5.54	CN1CCC(=C2c3ccccc3CC(=O)c3sccc32)CC1
7.6	CCCc1nn(C)c2c(=O)[nH]c(-c3cc(S(=O)(=O)N4CC(C)NC(C)C4)ccc3OCC)nc12 (stereo unspecified)
7.83	CCCOc1ccc(S(=O)(=O)NCCC2CCCN2C)cc1-c1nc2c(CCC)nn(C)c2c(=O)[nH]1 (stereo unspecified)
9.21	CC12CCC(O)CC1CCC1C2C(=O)CC2(C)C1CCC2(O)C(=O)CO (stereo unspecified)
7.25	Cc1ccc(NS(=O)(=O)N(C)C)cc1
8	CCC1OC(=O)C(C)C(OC2CC(C)(OC)C(O)C(C)O2)C(C)C(OC2OC(C)CC(N(C)C)C2O)C(C)(O)CC(C)C(=O)C(C)C(O)C1(C)O (stereo unspecified)
8.32	CC(COc1ccccc1Cc1ccccc1)N1CCCCC1 (stereo unspecified)
7.14	CC(C)NC(=O)c1ccccc1O
7.86	OC(CCN1CCCCC1)(c1ccccc1)C1CCCCC1 (stereo unspecified)
7.49	CCCCc1ncc(C=C(Cc2cccs2)C(=O)O)n1Cc1ccc(C(=O)O)cc1
3.96	Cc1c(NC=O)c(=O)n(-c2ccccc2)n1C

Compound	LC retention time [min]
COP(=O)(OC)OC(C)=CC(=O)OC(C)c1ccccc1 (stereo unspecified)	9.39
CCCCCn1nc(C(=O)c2cccc3ccccc23)c2ccccc21	13.1
COc1ccc2c(c1O)-c1c3c(cc4c1C(C2)N(C)CC4)OCO3 (stereo unspecified)	4.36
CCC(=O)C(CCN(C)C)(c1ccccc1)c1ccccc1	7.68
COC(=O)C(NC(=O)c1cn(CC2CCCCC2)c2ccccc12)C(C)(C)C (stereo unspecified)	12.4
COCc1cnc(C2=NC(C)(C(C)C)C(=O)N2)c(C(=O)O)c1 (stereo unspecified)	4.63
CNC(=O)ON=CC(C)(C)SC	6.17
CN(C)C(=O)C(c1ccccc1)c1ccccc1	8.57
CCOP(=S)(OCC)Oc1ccc(S(C)=O)cc1 (stereo unspecified)	8.27
CNC(=O)ON=C(SC)C(=O)N(C)C	3.77
CCOC(=O)CC(SP(=O)(OC)OC)C(=O)OCC (stereo unspecified)	7.01
CN(C)CCc1c[nH]c2cccc(O)c12	3.29
C=CC=CCC1=C(C)C(OC(=O)C2C(C=C(C)C(=O)OC)C2(C)C)CC1=O (stereo unspecified)	11.7
CC(C)C(NC(=O)c1nn(CC2CCCCC2)c2ccccc12)C(N)=O (stereo unspecified)	11.3
CCCCOC(=O)c1ccccc1C(=O)OCc1ccccc1	12.4
NCC1CCCCC1(O)c1cccc(O)c1 (stereo unspecified)	4.36
CCOP(=O)(Sc1ccccc1)Sc1ccccc1	10.8
CCOC(=O)c1ccccc1C(=O)OCC	8.5
CC(C)N(CCc1c[nH]c2ccccc12)C(C)C	4.87
Nc1ncn[nH]1	1.44
COC(=O)Nc1cccc(OC(=O)Nc2cccc(C)c2)c1	8.75
CC(Cc1ccccc1)NCCC#N (stereo unspecified)	4.14
O=C(O)c1ccccc1C(=O)Nc1cccc2ccccc12	6.75
CCOP(=S)(NC(C)C)Oc1ccccc1C(=O)OC(C)C (stereo unspecified)	11.2
CC1=C(C(=O)Nc2ccccc2)SCCO1	7.46
CCC=CCC1=C(C)C(OC(=O)C2C(C=C(C)C(=O)OC)C2(C)C)CC1=O (stereo unspecified)	12.2
CCCCCCCCOC(=O)c1ccccc1C(=O)OCCCCCCCC	15.3

Compound	LC retention time [min]
CNCC(O)c1ccc(O)cc1 (stereo unspecified)	1.6
CC(=O)Oc1ccc2c3c1OC1C(OC(C)=O)C=CC4C(C2)N(C)CCC341 (stereo unspecified)	4.63
O=C(Oc1cccc2cccnc12)c1cn(CC2CCCCC2)c2ccccc12	12.4
CCc1cnc(C2=NC(C)(C(C)C)C(=O)N2)c(C(=O)O)c1 (stereo unspecified)	5.6
CC(Cc1ccc(C(C)(C)C)cc1)CN1CC(C)OC(C)C1 (stereo unspecified)	10.7
CC(C)C1(C)N=C(c2ncccc2C(=O)O)NC1=O (stereo unspecified)	4.1
CCOP(=S)(OCC)SCSP(=S)(OCC)OCC	12.4
C=CCN(CC=C)CCc1c[nH]c2ccc(OC)cc12	4.89
CCC(C(=O)c1ccc2c(c1)OCO2)N1CCCC1 (stereo unspecified)	4.49
COP(N)(=S)Oc1ccccc1C(=O)OC(C)C (stereo unspecified)	8.32
CCCCSP(=O)(SCCCC)SCCCC	13.4
CCN(C(=O)SCc1ccccc1)C(C)C(C)C (stereo unspecified)	12.2
CCCCn1cc(C(=O)c2cccc3ccccc23)c2cccc(O)c21	11.2
CNC(=O)Oc1cc(C)cc(C(C)C)c1	9.51
CCOP(=S)(OCC)SCCS(=O)CC (stereo unspecified)	7.86
COc1ccc(OC)c(CC(C)N)c1 (stereo unspecified)	4.78
CNC(=O)ON=C(C)SC	4.16
c1cncc(C2CCCCN2)c1 (stereo unspecified)	2.94
C=CCCCn1cc(C(=O)c2cccc3ccccc23)c2ccccc21	12
CNC(=O)C=C(C)OP(=O)(OC)OC	4.36
CCN1CC2(COC)C(O)CC(OC)C34C5CC6(O)C(OC)C(O)C(OC(C)=O)(C5C6OC(=O)c5ccccc5)C(C(OC)C23)C14 (stereo unspecified)	7.09
CCCCCc1cc(O)c2c(c1)OC(C)(C)c1ccc(C)cc1-2	13.7
Cc1cc(C2CC2)nc(Nc2ccccc2)n1	11
CCCCCn1nc(C(=O)NC(C)(C)c2ccccc2)c2ccccc21	12.5
CCN(CC)C(=O)C(C)Oc1cccc2ccccc12 (stereo unspecified)	10.2
CCc1cc2c(s1)-n1c(C)nnc1CN=C2c1ccccc1	8.43
CCN(CC)C(=O)C1C=C2c3cccc4[nH]cc(c34)CC2NC1 (stereo unspecified)	5.56
